Experimental data: PubChem BioAssay (NCI)
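1) Cells in 96-well plates. 2) Compound, 48 h, 5 concentrations. 3) Linear interpolation between surrounding doses. 4) Unreached endpoint = highest concentration. The concentration for full growth arrest is given as TGI.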

The molecules below were run on SK-MEL-5 melanoma (assay: NCI anticancer screen, dose series, 48 h).

Row | Compound | TGI
1 | CCOCCOC(=O)C1CCC(=O)N1CN(C(C)=O)c1cc(OC)ccc1OC (configuration not stated) | > 100 µM
2 | CC(C)(Cl)C(Br)CCC(C)(Br)C(Br)CBr (configuration not stated) | 28 µM
3 | CCOC(=O)C(/C=N\C(=S)Nc1c(CC)cccc1C(C)(C)C)=C(/O)c1ccccc1 | > 100 µM
4 | O=CN(CCN1CCCC1)C1CCc2cc(Cl)c(Cl)cc2C1 (configuration not stated) | 42 µM
5 | OC1c2ccccc2CCC1C(O)(C(F)(F)F)C(F)(F)F (configuration not stated) | > 100 µM

These molecules were tested on SF-295 CNS (assay: NCI anticancer screen, dose series, 48 h).

Row | Compound | TGI
6 | CCOCCOC(=O)C1CCC(=O)N1CN(C(C)=O)c1cc(OC)ccc1OC (configuration not stated) | > 100 µM
7 | CC(C)(Cl)C(Br)CCC(C)(Br)C(Br)CBr (configuration not stated) | 32.8 µM
8 | CCOC(=O)C(/C=N\C(=S)Nc1c(CC)cccc1C(C)(C)C)=C(/O)c1ccccc1 | > 100 µM
9 | O=CN(CCN1CCCC1)C1CCc2cc(Cl)c(Cl)cc2C1 (configuration not stated) | 19 µM
10 | OC1c2ccccc2CCC1C(O)(C(F)(F)F)C(F)(F)F (configuration not stated) | > 100 µM

The molecules below were run on UACC-257 melanoma (assay: NCI anticancer screen, dose series, 48 h).

Row | Compound | TGI
11 | CCOCCOC(=O)C1CCC(=O)N1CN(C(C)=O)c1cc(OC)ccc1OC (configuration not stated) | > 100 µM
12 | CC(C)(Cl)C(Br)CCC(C)(Br)C(Br)CBr (configuration not stated) | 37.5 µM
13 | CCOC(=O)C(/C=N\C(=S)Nc1c(CC)cccc1C(C)(C)C)=C(/O)c1ccccc1 | > 100 µM
14 | O=CN(CCN1CCCC1)C1CCc2cc(Cl)c(Cl)cc2C1 (configuration not stated) | 30.5 µM

The molecules below were run on U251 CNS (assay: NCI anticancer screen, dose series, 48 h).

Row | Compound | TGI
15 | CCOCCOC(=O)C1CCC(=O)N1CN(C(C)=O)c1cc(OC)ccc1OC (configuration not stated) | > 100 µM
16 | CC(C)(Cl)C(Br)CCC(C)(Br)C(Br)CBr (configuration not stated) | 30.1 µM
17 | CCOC(=O)C(/C=N\C(=S)Nc1c(CC)cccc1C(C)(C)C)=C(/O)c1ccccc1 | > 100 µM
18 | O=CN(CCN1CCCC1)C1CCc2cc(Cl)c(Cl)cc2C1 (configuration not stated) | 24.6 µM
19 | OC1c2ccccc2CCC1C(O)(C(F)(F)F)C(F)(F)F (configuration not stated) | > 100 µM

What follows are molecules tested on NCI-H522 lung (assay: NCI anticancer screen, dose series, 48 h).

Row | Compound | TGI
20 | CCOCCOC(=O)C1CCC(=O)N1CN(C(C)=O)c1cc(OC)ccc1OC (configuration not stated) | > 100 µM
21 | CC(C)(Cl)C(Br)CCC(C)(Br)C(Br)CBr (configuration not stated) | 26.5 µM
22 | CCOC(=O)C(/C=N\C(=S)Nc1c(CC)cccc1C(C)(C)C)=C(/O)c1ccccc1 | > 100 µM
23 | O=CN(CCN1CCCC1)C1CCc2cc(Cl)c(Cl)cc2C1 (configuration not stated) | 23 µM
24 | OC1c2ccccc2CCC1C(O)(C(F)(F)F)C(F)(F)F (configuration not stated) | > 100 µM

Each molecule was assayed on T-47D breast (assay: NCI anticancer screen, dose series, 48 h).

Row | Compound | TGI
25 | CCOCCOC(=O)C1CCC(=O)N1CN(C(C)=O)c1cc(OC)ccc1OC (configuration not stated) | > 100 µM
26 | CC(C)(Cl)C(Br)CCC(C)(Br)C(Br)CBr (configuration not stated) | 46.4 µM
27 | CCOC(=O)C(/C=N\C(=S)Nc1c(CC)cccc1C(C)(C)C)=C(/O)c1ccccc1 | > 100 µM
28 | O=CN(CCN1CCCC1)C1CCc2cc(Cl)c(Cl)cc2C1 (configuration not stated) | 41.3 µM
29 | OC1c2ccccc2CCC1C(O)(C(F)(F)F)C(F)(F)F (configuration not stated) | > 100 µM

These molecules were tested on MDA-MB-435 (assay: NCI anticancer screen, dose series, 48 h).

Row | Compound | TGI
30 | CCOCCOC(=O)C1CCC(=O)N1CN(C(C)=O)c1cc(OC)ccc1OC (configuration not stated) | > 100 µM
31 | CC(C)(Cl)C(Br)CCC(C)(Br)C(Br)CBr (configuration not stated) | 35.3 µM
32 | CCOC(=O)C(/C=N\C(=S)Nc1c(CC)cccc1C(C)(C)C)=C(/O)c1ccccc1 | > 100 µM
33 | O=CN(CCN1CCCC1)C1CCc2cc(Cl)c(Cl)cc2C1 (configuration not stated) | 28.6 µM
34 | OC1c2ccccc2CCC1C(O)(C(F)(F)F)C(F)(F)F (configuration not stated) | > 100 µM

Each molecule was assayed on HCT-15 colon (assay: NCI anticancer screen, dose series, 48 h).

Row | Compound | TGI
35 | CCOCCOC(=O)C1CCC(=O)N1CN(C(C)=O)c1cc(OC)ccc1OC (configuration not stated) | > 100 µM
36 | CC(C)(Cl)C(Br)CCC(C)(Br)C(Br)CBr (configuration not stated) | 42.6 µM
37 | CCOC(=O)C(/C=N\C(=S)Nc1c(CC)cccc1C(C)(C)C)=C(/O)c1ccccc1 | > 100 µM
38 | O=CN(CCN1CCCC1)C1CCc2cc(Cl)c(Cl)cc2C1 (configuration not stated) | 31.8 µM
39 | OC1c2ccccc2CCC1C(O)(C(F)(F)F)C(F)(F)F (configuration not stated) | > 100 µM

The molecules below were run on MDA-N (assay: NCI anticancer screen, dose series, 48 h).

Row | Compound | TGI
40 | CCOCCOC(=O)C1CCC(=O)N1CN(C(C)=O)c1cc(OC)ccc1OC (configuration not stated) | > 100 µM
41 | CC(C)(Cl)C(Br)CCC(C)(Br)C(Br)CBr (configuration not stated) | 43.1 µM
42 | CCOC(=O)C(/C=N\C(=S)Nc1c(CC)cccc1C(C)(C)C)=C(/O)c1ccccc1 | > 100 µM
43 | O=CN(CCN1CCCC1)C1CCc2cc(Cl)c(Cl)cc2C1 (configuration not stated) | 23.4 µM
44 | OC1c2ccccc2CCC1C(O)(C(F)(F)F)C(F)(F)F (configuration not stated) | > 100 µM

What follows are molecules tested on MCF7 breast (assay: NCI anticancer screen, dose series, 48 h).

Row | Compound | TGI
45 | CCOCCOC(=O)C1CCC(=O)N1CN(C(C)=O)c1cc(OC)ccc1OC (configuration not stated) | > 100 µM
46 | CCOC(=O)C(/C=N\C(=S)Nc1c(CC)cccc1C(C)(C)C)=C(/O)c1ccccc1 | > 100 µM
47 | OC1c2ccccc2CCC1C(O)(C(F)(F)F)C(F)(F)F (configuration not stated) | > 100 µM

These molecules were tested on OVCAR-4 ovarian (assay: NCI anticancer screen, dose series, 48 h).

Row | Compound | TGI
48 | CCOCCOC(=O)C1CCC(=O)N1CN(C(C)=O)c1cc(OC)ccc1OC (configuration not stated) | > 100 µM
49 | CC(C)(Cl)C(Br)CCC(C)(Br)C(Br)CBr (configuration not stated) | 37.5 µM
50 | CCOC(=O)C(/C=N\C(=S)Nc1c(CC)cccc1C(C)(C)C)=C(/O)c1ccccc1 | > 100 µM
51 | O=CN(CCN1CCCC1)C1CCc2cc(Cl)c(Cl)cc2C1 (configuration not stated) | > 100 µM
52 | OC1c2ccccc2CCC1C(O)(C(F)(F)F)C(F)(F)F (configuration not stated) | > 100 µM

What follows are molecules tested on HCC-2998 colon (assay: NCI anticancer screen, dose series, 48 h).

Row | Compound | TGI
53 | CC(C)(Cl)C(Br)CCC(C)(Br)C(Br)CBr (configuration not stated) | 25.8 µM
54 | CCOC(=O)C(/C=N\C(=S)Nc1c(CC)cccc1C(C)(C)C)=C(/O)c1ccccc1 | > 100 µM
55 | O=CN(CCN1CCCC1)C1CCc2cc(Cl)c(Cl)cc2C1 (configuration not stated) | 31.2 µM
56 | OC1c2ccccc2CCC1C(O)(C(F)(F)F)C(F)(F)F (configuration not stated) | > 100 µM

What follows are molecules tested on MDA-MB-231 breast (assay: NCI anticancer screen, dose series, 48 h).

Row | Compound | TGI
57 | CCOCCOC(=O)C1CCC(=O)N1CN(C(C)=O)c1cc(OC)ccc1OC (configuration not stated) | > 100 µM
58 | CC(C)(Cl)C(Br)CCC(C)(Br)C(Br)CBr (configuration not stated) | 25.9 µM
59 | CCOC(=O)C(/C=N\C(=S)Nc1c(CC)cccc1C(C)(C)C)=C(/O)c1ccccc1 | > 100 µM
60 | O=CN(CCN1CCCC1)C1CCc2cc(Cl)c(Cl)cc2C1 (configuration not stated) | 26.1 µM
61 | OC1c2ccccc2CCC1C(O)(C(F)(F)F)C(F)(F)F (configuration not stated) | > 100 µM

These molecules were tested on OVCAR-5 ovarian (assay: NCI anticancer screen, dose series, 48 h).

Row | Compound | TGI
62 | CCOCCOC(=O)C1CCC(=O)N1CN(C(C)=O)c1cc(OC)ccc1OC (configuration not stated) | > 100 µM
63 | CC(C)(Cl)C(Br)CCC(C)(Br)C(Br)CBr (configuration not stated) | 31.2 µM
64 | CCOC(=O)C(/C=N\C(=S)Nc1c(CC)cccc1C(C)(C)C)=C(/O)c1ccccc1 | > 100 µM
65 | O=CN(CCN1CCCC1)C1CCc2cc(Cl)c(Cl)cc2C1 (configuration not stated) | 40.7 µM
66 | OC1c2ccccc2CCC1C(O)(C(F)(F)F)C(F)(F)F (configuration not stated) | > 100 µM

The molecules below were run on HOP-92 NSCLC (assay: NCI anticancer screen, dose series, 48 h).

Row | Compound | TGI
67 | CCOCCOC(=O)C1CCC(=O)N1CN(C(C)=O)c1cc(OC)ccc1OC (configuration not stated) | > 100 µM
